Source: patent US20240016942A1, “STAT DEGRADERS AND USES THEREOF” (Kymera Therapeutics, Inc., priority 2020, published 2024)

Target: T1, STAT3 (Homo sapiens, UniProt P40763)
T1 construct: expressed in transfected cells; host or cells: A549
Test: STAT3 HiBiT degradation assay (Nano-Glo HiBiT lytic detection) in transfected A549 cells
Type: cell-based
Settings: 24 h compound incubation, read-out: STAT3 HiBIT A549 degradation 24 h: Average external-Abs DC50
Description: Example 1. HiBiT Assay Protocol
Compound preparation and Cell seeding: The transfected A549 cells were harvested from dish into cell culture medium and cell numbers counted. Cells were diluted with culture medium to the desired density and 30 μL of cell suspension (about 2000 cells/well) were added into each well of a 384-well cell culture plate as designated and transferred into 37° C. 5% CO2 incubator for 24 h. Compounds were dissolved to 10 mM stock solution and 12 μL of the stock solution was transferred to a 384 LDV-plate. 3 fold, 10-point dilution was performed by transferring 4 μL compound into 8 μL DMSO using a TECAN (EVO200) liquid handler. 30 μl of diluted compound from compound source plate was transferred into the cell plate as designated by using Echo550 and transferred into 37° C. 5% CO2 incubator for 24 h.
Detection: Plates were removed from incubators and equilibrated at room temperature for 15 minutes. Nano-Glo Hibit Lytic Detection reagent (Promega Cat #N3040) was thawed and equilibrated to room temperature before the experiment. 30 μL of Nano-Glo Hibit Lytic Detection reagent was added into each well to be detected. The plates were held at room temperature for 10 min followed by reading on EnSpire.
Data analysis: The remaining activity was calculated following the formula: Remaining Activity (%)=100%×(Lumsample−LumNC)/(LumPC−LumNC). Calculate the IC50 by fitting the curve using Xlfit (v5.3.1.3), equation 201: fit=(A+((B−A)/(1+((x/C)^D)))); A: Botton; B: Top; C: IC50; and D: Slope.
The letter codes for STAT3 DC50 include: A (<0.01 μM), B (0.01-0.1 μM), C (0.1-1.0 μM), and D (>1.0 μM).

T1 sequence (P40763 whole entry): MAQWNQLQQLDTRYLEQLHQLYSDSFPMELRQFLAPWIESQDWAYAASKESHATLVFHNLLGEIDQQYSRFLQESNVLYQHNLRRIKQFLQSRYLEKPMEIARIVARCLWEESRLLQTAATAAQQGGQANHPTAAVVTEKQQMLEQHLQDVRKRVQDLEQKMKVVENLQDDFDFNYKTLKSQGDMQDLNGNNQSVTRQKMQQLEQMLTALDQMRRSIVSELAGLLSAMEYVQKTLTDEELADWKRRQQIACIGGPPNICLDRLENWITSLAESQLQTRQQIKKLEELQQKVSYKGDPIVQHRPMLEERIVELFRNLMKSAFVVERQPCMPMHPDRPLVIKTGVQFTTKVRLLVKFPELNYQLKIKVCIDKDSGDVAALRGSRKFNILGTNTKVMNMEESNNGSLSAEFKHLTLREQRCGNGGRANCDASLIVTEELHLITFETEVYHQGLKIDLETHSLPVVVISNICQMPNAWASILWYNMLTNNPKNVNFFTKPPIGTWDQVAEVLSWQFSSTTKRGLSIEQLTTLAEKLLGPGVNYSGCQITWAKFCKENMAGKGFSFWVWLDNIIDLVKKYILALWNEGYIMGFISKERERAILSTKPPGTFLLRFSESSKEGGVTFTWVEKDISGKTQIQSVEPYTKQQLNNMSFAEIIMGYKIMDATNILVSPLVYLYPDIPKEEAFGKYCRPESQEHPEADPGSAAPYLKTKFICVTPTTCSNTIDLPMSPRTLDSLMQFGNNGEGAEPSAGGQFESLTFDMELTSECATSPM

Row | Compound | DC50
1 | Cc1ncsc1-c1ccc([C@H](C)NC(=O)[C@@H]2C[C@@H](O)CN2C(=O)[C@@H](NC(=O)CCCCc2cccc(OC[C@H](CCC(N)=O)NC(=O)[C@@H]3CC[C@@H]4CCCC[C@H](NC(=O)c5cc6cc(C(=O)P(=O)(O)O)ccc6[nH]5)C(=O)N43)c2Cl)C(C)(C)C)cc1 [I-1] | < 10 nM
2 | Cc1ncsc1-c1ccc([C@H](C)NC(=O)[C@@H]2C[C@@H](O)CN2C(=O)[C@@H](NC(=O)CCCc2cccc(OC[C@H](CCC(N)=O)NC(=O)[C@@H]3CC[C@@H]4CCCC[C@H](NC(=O)c5cc6cc(C(=O)P(=O)(O)O)ccc6[nH]5)C(=O)N43)c2Cl)C(C)(C)C)cc1 [I-2] | < 10 nM
3 | Cc1ncsc1-c1ccc([C@H](C)NC(=O)[C@@H]2C[C@@H](O)CN2C(=O)[C@@H](NC(=O)CCCCc2cccc(OC[C@H](CCC(N)=O)NC(=O)[C@@H]3CC[C@@H]4CCCC[C@H](NC(=O)c5cc6cc(C(=O)P(=O)(O)O)ccc6[nH]5)C(=O)N43)c2F)C(C)(C)C)cc1 [I-3] | < 10 nM
4 | Cc1cc(CCCCCC(=O)N[C@H](C(=O)N2C[C@H](O)C[C@H]2C(=O)N[C@@H](C)c2ccc(-c3scnc3C)cc2)C(C)(C)C)c(F)c(OC[C@H](CCC(N)=O)NC(=O)[C@@H]2CC[C@@H]3CCCC[C@H](NC(=O)c4cc5cc(C(=O)P(=O)(O)O)ccc5[nH]4)C(=O)N32)c1 [I-4] | < 10 nM
5 | Cc1cc(CCCC(=O)N[C@H](C(=O)N2C[C@H](O)C[C@H]2C(=O)N[C@@H](C)c2ccc(-c3scnc3C)cc2)C(C)(C)C)c(Cl)c(OC[C@H](CCC(N)=O)NC(=O)[C@@H]2CC[C@@H]3CCCC[C@H](NC(=O)c4cc5cc(C(=O)P(=O)(O)O)ccc5[nH]4)C(=O)N32)c1 [I-5] | < 10 nM
6 | Cc1ncsc1-c1ccc([C@H](C)NC(=O)[C@@H]2C[C@@H](O)CN2C(=O)[C@@H](NC(=O)CCCCCc2cccc(OC[C@H](CCC(N)=O)NC(=O)[C@@H]3CC[C@@H]4CCCC[C@H](NC(=O)c5cc6cc(C(=O)P(=O)(O)O)ccc6[nH]5)C(=O)N43)c2F)C(C)(C)C)cc1 [I-6] | 10 to 100 nM
7 | Cc1cc(CCCC(=O)N[C@H](C(=O)N2C[C@H](O)C[C@H]2C(=O)N[C@@H](C)c2ccc(-c3scnc3C)cc2)C(C)(C)C)c(F)c(OC[C@H](CCC(N)=O)NC(=O)[C@@H]2CC[C@@H]3CCCC[C@H](NC(=O)c4cc5cc(C(=O)P(=O)(O)O)ccc5[nH]4)C(=O)N32)c1 [I-7] | < 10 nM
8 | Cc1ncsc1-c1ccc([C@H](C)NC(=O)[C@@H]2C[C@@H](O)CN2C(=O)[C@@H](NC(=O)CCCc2cc(F)cc(OC[C@H](CCC(N)=O)NC(=O)[C@@H]3CC[C@@H]4CCCC[C@H](NC(=O)c5cc6cc(C(=O)P(=O)(O)O)ccc6[nH]5)C(=O)N43)c2Cl)C(C)(C)C)cc1 [I-8] | < 10 nM
9 | Cc1ncsc1-c1ccc([C@H](C)NC(=O)[C@@H]2C[C@@H](O)CN2C(=O)[C@@H](NC(=O)CCCc2cccc(OC[C@H](CCC(N)=O)NC(=O)[C@@H]3CC[C@@H]4CCCC[C@H](NC(=O)c5cc6cc(C(=O)P(=O)(O)O)ccc6[nH]5)C(=O)N43)c2F)C(C)(C)C)cc1 [I-9] | < 10 nM
10 | Cc1ncsc1-c1ccc(C2(NC(=O)[C@@H]3C[C@@H](O)CN3C(=O)[C@@H](NC(=O)CCCCc3cccc(OC[C@H](CCC(N)=O)NC(=O)[C@@H]4CC[C@@H]5CCCC[C@H](NC(=O)c6cc7cc(C(=O)P(=O)(O)O)ccc7[nH]6)C(=O)N54)c3Cl)C(C)(C)C)CC2)cc1 [I-10] | < 10 nM
11 | Cc1ncsc1-c1ccc([C@H](C)NC(=O)[C@@H]2C[C@@H](O)CN2C(=O)[C@@H](NC(=O)CCCc2cccc(OC[C@H](CCC(N)=O)NC(=O)[C@@H]3CCCN3C(=O)[C@H](CO)NC(=O)c3cc4cc(C(=O)P(=O)(O)O)ccc4[nH]3)c2Cl)C(C)(C)C)cc1 [I-11] | 10 to 100 nM
12 | Cc1ncsc1-c1ccc([C@H](C)NC(=O)[C@@H]2C[C@@H](O)CN2C(=O)[C@@H](NC(=O)CCCc2cccc(OC[C@H](CCC(N)=O)NC(=O)[C@@H]3CCCN3C(=O)[C@@H](NC(=O)c3cc4cc(C(=O)P(=O)(O)O)ccc4[nH]3)C3CCCCC3)c2Cl)C(C)(C)C)cc1 [I-12] | 10 to 100 nM
13 | Cc1ncsc1-c1ccc([C@H](C)NC(=O)[C@@H]2C[C@@H](O)CN2C(=O)[C@@H](NC(=O)CCCc2cccc(OC[C@H](CCC(N)=O)NC(=O)[C@@H]3CCCN3C(=O)CNC(=O)c3cc4cc(C(=O)P(=O)(O)O)ccc4[nH]3)c2Cl)C(C)(C)C)cc1 [I-13] | 10 to 100 nM
14 | Cc1ncsc1-c1ccc([C@H](C)NC(=O)[C@@H]2C[C@@H](O)CN2C(=O)[C@@H](NC(=O)CCCc2cccc(OC[C@H](CCC(N)=O)NC(=O)[C@@H]3CCCN3C(=O)[C@@H](NC(=O)c3cc4cc(C(=O)P(=O)(O)O)ccc4[nH]3)C(C)(C)C)c2Cl)C(C)(C)C)cc1 [I-14] | 100 to 1000 nM
15 | Cc1ncsc1-c1ccc([C@H](C)NC(=O)[C@@H]2C[C@@H](O)CN2C(=O)[C@@H](NC(=O)CCCc2cccc(OC[C@H](CCC(N)=O)NC(=O)[C@@H]3CCCN3C(=O)[C@@H](NC(=O)c3cc4cc(C(=O)P(=O)(O)O)ccc4[nH]3)C(C)C)c2Cl)C(C)(C)C)cc1 [I-15, 2-[[(2S)-1-[(2S)-2-[[(2S)-4-carbamoyl-1-[2-chloro-3-(3-[[(2S)-1-[(2S,4R)-4-hydroxy-2-[[(1S)-1-[4-(4-methyl-1,3-thiazol-5-yl)phenyl]ethyl]carbamoyl]pyrrolidin-1-yl]-3,3-dimethyl-1-oxobutan-2-yl]carbamoyl]propyl)phenoxy]butan-2-yl]carbamoyl]pyrrolidin-1-yl]-3-methyl-1-oxobutan-2-yl]carbamoyl]-1H-indole-5-carbonylphosphonic acid] | 10 to 100 nM
16 | CNC(=O)[C@@H]1Cc2cc(CCCCCCc3ccc4c(c3)n(C)c(=O)n4C3CCC(=O)NC3=O)cc3c2N1C(=O)[C@@H](NC(=O)c1cc2cc(C(=O)P(=O)(O)O)ccc2[nH]1)CC3 (stereo partly drawn) [I-20] | > 1000 nM
17 | C[C@H](CCC(=O)N(C)C)NC(=O)[C@@H]1Cc2cc(CCCCCCc3ccc4c(c3)n(C)c(=O)n4C3CCC(=O)NC3=O)cc3c2N1C(=O)[C@@H](NC(=O)c1cc2cc(C(=O)P(=O)(O)O)ccc2[nH]1)CC3 (stereo partly drawn) [I-21] | > 1000 nM
18 | CNC(=O)CC[C@@H](C)NC(=O)[C@@H]1Cc2cc(CCCCCCc3ccc4c(c3)n(C)c(=O)n4C3CCC(=O)NC3=O)cc3c2N1C(=O)[C@@H](NC(=O)c1cc2cc(C(=O)P(=O)(O)O)ccc2[nH]1)CC3 (stereo partly drawn) [I-22] | > 1000 nM
19 | CC(=O)N1CC[C@H]2CC[C@@H](C(=O)N[C@@H](CCC(N)=O)COc3cc(C)cc(CCCCCC(=O)N[C@H](C(=O)N4C[C@@H](O)C[C@H]4C(=O)N[C@@H](C)c4ccc(-c5scnc5C)cc4)C(C)(C)C)c3F)N2C[C@@H](NC(=O)c2cc3cc(C(=O)P(=O)(O)O)ccc3[nH]2)C1 [I-23] | > 1000 nM
20 | CC(=O)N1CC[C@H]2CC[C@@H](C(=O)N[C@H](CCC(N)=O)COc3cccc(CCCCC(=O)N[C@H](C(=O)N4C[C@H](O)C[C@H]4C(=O)N[C@@H](C)c4ccc(-c5scnc5C)cc4)C(C)(C)C)c3Cl)N2C(=O)[C@@H](NC(=O)c2cc3cc(C(=O)P(=O)(O)O)ccc3[nH]2)C1 [I-24] | 100 to 1000 nM
21 | CN(C)C(=O)[C@@H]1Cc2cc(CCCCCCc3ccc4c(c3)n(C)c(=O)n4C3CCC(=O)NC3=O)cc3c2N1C(=O)[C@@H](NC(=O)c1cc2cc(C(=O)P(=O)(O)O)ccc2[nH]1)CC3 (stereo partly drawn) [I-25, 2-[[(2S, 11S)-2-(dimethylcarbamoyl)-6-[6-[1-(2,6-dioxopiperidin-3-yl)-3-methyl-2-oxo-1,3-benzodiazol-5-yl]hexyl]-12-oxo-1-azatricyclo [6.4.1.0^[4, 13]]trideca-4(13), 5,7-trien-11-yl]carbamoyl]-1H-indole-5-carbonylphosphonic acid] | > 1000 nM
22 | Cn1c(=O)n(C2CCC(=O)NC2=O)c2ccc(C[C@H]3CC[C@@H](CC(=O)N4CC[C@H]5CC[C@@H](C(=O)NC(C)(C)CCC(N)=O)N5C(=O)[C@@H](NC(=O)c5cc6cc(C(=O)P(=O)(O)O)ccc6[nH]5)C4)CC3)cc21 (stereo partly drawn) [I-26] | > 1000 nM
23 | Cn1c(=O)n(C2CCC(=O)NC2=O)c2ccc(CCCc3cccc(OC[C@H](CCC(N)=O)NC(=O)[C@@H]4CC[C@@H]5CCCC[C@H](NC(=O)c6cc7cc(C(=O)P(=O)(O)O)ccc7[nH]6)C(=O)N54)c3Cl)cc21 (stereo partly drawn) [I-27] | > 1000 nM
24 | Cn1c(=O)n(C2CCC(=O)NC2=O)c2ccc(CCCCCc3cccc(OC[C@H](CCC(N)=O)NC(=O)[C@@H]4CC[C@@H]5CCCC[C@H](NC(=O)c6cc7cc(C(=O)P(=O)(O)O)ccc7[nH]6)C(=O)N54)c3Cl)cc21 (stereo partly drawn) [I-28] | 100 to 1000 nM
25 | Cn1c(=O)n(C2CCC(=O)NC2=O)c2ccc(C[C@H]3CC[C@@H](CC(=O)N4CC[C@H]5CC[C@@H](C(=O)NC6(CCC(N)=O)CCCC6)N5C(=O)[C@@H](NC(=O)c5cc6cc(C(=O)P(=O)(O)O)ccc6[nH]5)C4)CC3)cc21 (stereo partly drawn) [I-29] | > 1000 nM
26 | CC(C)c1ccc(CNC(=O)[C@H](CCC(N)=O)NC(=O)[C@@H]2CC[C@@H]3CCN(C(=O)[C@H]4CC[C@@H](CCc5ccc6c(c5)n(C)c(=O)n6C5CCC(=O)NC5=O)CC4)C[C@H](NC(=O)c4cc5cc(C(=O)P(=O)(O)O)ccc5[nH]4)C(=O)N32)cc1F (stereo partly drawn) [I-30] | 10 to 100 nM
27 | Cn1c(=O)n(C2CCC(=O)NC2=O)c2ccc(C[C@H]3CC[C@@H](CC(=O)N4CC[C@H]5CC[C@@H](C(=O)NC6(CCC(N)=O)CC6)N5C(=O)[C@@H](NC(=O)c5cc6cc(C(=O)P(=O)(O)O)ccc6[nH]5)C4)CC3)cc21 (stereo partly drawn) [I-31] | > 1000 nM
